From ChEMBL document CHEMBL2413023, “Antiparasitic hybrids of Cinchona alkaloids and bile acids” (Eur J Med Chem, 2013)
Values after ≈ are worked out from the molar mass of the structure shown.

What was measured:
Plasmodium falciparum = experiment: Antiplasmodial activity against erythrocytic stage of chloroquine-sensitive Plasmodium falciparum 3D7 assessed as parasite LDH activity by three-fold serial dilution method; assay type: functional, organism-based
[1] = tested on: Trypanosoma brucei brucei; experiment: Antitrypanosomal activity against Trypanosoma brucei brucei Lister 427 bloodstream form assessed as parasite LDH activity by three-fold serial dilution method; assay type: functional, organism-based
[2] = Selectivity index, ratio of IC50 for human WI38 cells to IC50 for Leishmania mexicana mexicana MHOM/BZ/84/BEL46 promastigotes; assay type: toxicity, cell-based, WI-38; details: read-out: Ratio IC50
in vitro = details: human, WI38 cells
Description: Selectivity index, ratio of IC50 for human WI38 cells to IC50 for Trypanosoma brucei brucei Lister 427 bloodstream form

[3] = Selectivity index, ratio of IC50 for human WI38 cells to IC50 for erythrocytic stage of chloroquine-sensitive Plasmodium falciparum 3D7; assay type: toxicity, cell-based, WI-38; details: read-out: Ratio IC50
WI-38 = experiment: Cytotoxicity against human WI38 cells by MTT assay; assay type: cell-based
[4] = tested on: Leishmania mexicana mexicana; experiment: Antileishmanial activity against Leishmania mexicana mexicana MHOM/BZ/84/BEL46 promastigotes assessed as parasite LDH activity by three-fold serial dilution method; assay type: functional, organism-based

| Compound | IC50 (Plasmodium falciparum) [µg/mL] | IC50 [1] [µg/mL] | selectivity ratio [2] | selectivity ratio (in vitro) | selectivity ratio [3] | IC50 (WI-38) [µg/mL] | IC50 [4] [µg/mL] |
| --- | --- | --- | --- | --- | --- | --- | --- |
| C=C[C@H]1CN2CC[C@H]1C[C@H]2[C@H](O)c1cc(CC[C@@H](C)[C@H]2CC[C@H]3[C@@H]4CC[C@@H]5C[C@H](OC(C)=O)CC[C@]5(C)[C@H]4CC[C@]23C)nc2ccccc12 | 1.21 (≈ 1.81 µM) | 1.27 (≈ 1.9 µM) | 0.46 | 4.4 | 4.6 | 5.58 (≈ 8.37 µM) | 12.2 (≈ 18.3 µM) |
| C=C[C@H]1CN2CC[C@H]1C[C@H]2[C@@H](O)c1cc(CC[C@@H](C)[C@H]2CC[C@H]3[C@@H]4CC[C@@H]5C[C@H](O)CC[C@]5(C)[C@H]4CC[C@]23C)nc2ccccc12 | 0.86 (≈ 1.38 µM) | 3.01 (≈ 4.82 µM) | 0.97 | 1.3 | 4.6 | 3.97 (≈ 6.35 µM) | 4.08 (≈ 6.53 µM) |
| C=C[C@H]1CN2CC[C@H]1C[C@H]2[C@@H](O)c1cc(CC[C@@H](C)[C@H]2CC[C@H]3[C@@H]4[C@H](O)C[C@@H]5C[C@H](O)CC[C@]5(C)[C@H]4CC[C@]23C)nc2ccccc12 | 0.09 (≈ 0.14 µM) | 0.39 (≈ 0.608 µM) | 0.42 | 3.6 | 15.7 | 1.42 (≈ 2.22 µM) | 3.39 (≈ 5.29 µM) |
| C=C[C@H]1CN2CC[C@H]1C[C@H]2[C@H](O)c1cc(CC[C@@H](C)[C@H]2CC[C@H]3[C@@H]4CC[C@@H]5C[C@H](O)CC[C@]5(C)[C@H]4CC[C@]23C)nc2ccccc12 | 1.07 (≈ 1.71 µM) | 2.16 (≈ 3.46 µM) | 0.72 | 4.3 | 8.7 | 9.28 (≈ 14.8 µM) | 12.8 (≈ 20.5 µM) |
| C=C[C@H]1CN2CC[C@H]1C[C@H]2[C@H](O)c1cc(CC[C@@H](C)[C@H]2CC[C@H]3[C@@H]4[C@H](O)C[C@@H]5C[C@H](O)CC[C@]5(C)[C@H]4CC[C@]23C)nc2ccccc12 | 0.23 (≈ 0.359 µM) | 0.4 (≈ 0.624 µM) | 0.5 | 4.3 | 7.5 | 1.71 (≈ 2.67 µM) | 3.45 (≈ 5.38 µM) |
| C=C[C@H]1CN2CC[C@H]1C[C@H]2[C@H](O)c1cc(CC[C@@H](C)[C@H]2CC[C@H]3[C@@H]4CC[C@@H]5C[C@H](OC(C)=O)CC[C@]5(C)[C@H]4CC[C@]23C)nc2ccc(OC)cc12 | 6.07 (≈ 8.71 µM) | 2.03 (≈ 2.91 µM) | 1.2 | 8 | 2.7 | 16.2 (≈ 23.2 µM) | 14 (≈ 20 µM) |
| C=C[C@H]1CN2CC[C@H]1C[C@H]2[C@H](O)c1cc(CC[C@@H](C)[C@H]2CC[C@H]3[C@@H]4[C@H](OC(C)=O)C[C@@H]5C[C@H](OC(C)=O)CC[C@]5(C)[C@H]4CC[C@]23C)nc2ccc(OC)cc12 | 0.69 (≈ 0.914 µM) | 1.22 (≈ 1.62 µM) | 1.1 | 3.2 | 5.6 | 3.92 (≈ 5.19 µM) | 3.49 (≈ 4.62 µM) |
| C=C[C@H]1CN2CC[C@H]1C[C@H]2[C@@H](O)c1cc(CC[C@@H](C)[C@H]2CC[C@H]3[C@@H]4CC[C@@H]5C[C@H](OC(C)=O)CC[C@]5(C)[C@H]4CC[C@]23C)nc2ccc(OC)cc12 | 0.81 (≈ 1.16 µM) | 2.97 (≈ 4.26 µM) | 0.57 | 2.6 | 9.7 | 7.79 (≈ 11.2 µM) | 13.7 (≈ 19.6 µM) |
| C=C[C@H]1CN2CC[C@H]1C[C@H]2[C@@H](O)c1cc(CC[C@@H](C)[C@H]2CC[C@H]3[C@@H]4[C@H](OC(C)=O)C[C@@H]5C[C@H](OC(C)=O)CC[C@]5(C)[C@H]4CC[C@]23C)nc2ccc(OC)cc12 | 0.38 (≈ 0.503 µM) | 0.44 (≈ 0.583 µM) | 0.75 | 7.1 | 8.1 | 3.1 (≈ 4.11 µM) | 4.15 (≈ 5.5 µM) |
| C=C[C@H]1CN2CC[C@H]1C[C@H]2[C@@H](O)c1cc(CC[C@@H](C)[C@H]2CC[C@H]3[C@@H]4CC[C@@H]5C[C@H](OC(C)=O)CC[C@]5(C)[C@H]4CC[C@]23C)nc2ccccc12 | 2.26 (≈ 3.39 µM) | 1.26 (≈ 1.89 µM) | 0.58 | 5.6 | 3.1 | 7.02 (≈ 10.5 µM) | 12.1 (≈ 18.1 µM) |
| C=C[C@H]1CN2CC[C@H]1C[C@H]2[C@@H](O)c1cc(CC[C@@H](C)[C@H]2CC[C@H]3[C@@H]4[C@H](OC(C)=O)C[C@@H]5C[C@H](OC(C)=O)CC[C@]5(C)[C@H]4CC[C@]23C)nc2ccccc12 | 0.19 (≈ 0.262 µM) | 0.43 (≈ 0.593 µM) | 0.47 | 4.5 | 10.2 | 1.93 (≈ 2.66 µM) | 4.11 (≈ 5.67 µM) |
| C=C[C@H]1CN2CC[C@H]1C[C@H]2[C@H](O)c1cc(CC[C@@H](C)[C@H]2CC[C@H]3[C@@H]4[C@H](OC(C)=O)C[C@@H]5C[C@H](OC(C)=O)CC[C@]5(C)[C@H]4CC[C@]23C)nc2ccccc12 | 0.21 (≈ 0.29 µM) | 0.41 (≈ 0.565 µM) | 0.45 | 4.3 | 8.4 | 1.77 (≈ 2.44 µM) | 3.91 (≈ 5.39 µM) |
| C=C[C@H]1CN2CC[C@H]1C[C@H]2[C@H](O)c1cc(CC[C@@H](C)[C@H]2CC[C@H]3[C@@H]4CC[C@@H]5C[C@H](O)CC[C@]5(C)[C@H]4CC[C@]23C)nc2ccc(OC)cc12 | 4.24 (≈ 6.47 µM) | 3.53 (≈ 5.39 µM) | – | – | – | > 20 | > 20 |
| C=C[C@H]1CN2CC[C@H]1C[C@H]2[C@H](O)c1cc(CC[C@@H](C)[C@H]2CC[C@H]3[C@@H]4[C@H](O)C[C@@H]5C[C@H](O)CC[C@]5(C)[C@H]4CC[C@]23C)nc2ccc(OC)cc12 | 0.3 (≈ 0.447 µM) | 0.41 (≈ 0.611 µM) | 0.98 | 11.1 | 15.5 | 4.57 (≈ 6.81 µM) | 4.67 (≈ 6.96 µM) |
| C=C[C@H]1CN2CC[C@H]1C[C@H]2[C@@H](O)c1cc(CC[C@@H](C)[C@H]2CC[C@H]3[C@@H]4CC[C@@H]5C[C@H](O)CC[C@]5(C)[C@H]4CC[C@]23C)nc2ccc(OC)cc12 | 0.68 (≈ 1.04 µM) | 0.79 (≈ 1.21 µM) | 0.64 | 3.3 | 3.8 | 2.59 (≈ 3.95 µM) | 4.05 (≈ 6.18 µM) |
| C=C[C@H]1CN2CC[C@H]1C[C@H]2[C@@H](O)c1cc(CC[C@@H](C)[C@H]2CC[C@H]3[C@@H]4[C@H](O)C[C@@H]5C[C@H](O)CC[C@]5(C)[C@H]4CC[C@]23C)nc2ccc(OC)cc12 | 0.14 (≈ 0.209 µM) | 0.37 (≈ 0.551 µM) | 0.51 | 5.3 | 14 | 1.95 (≈ 2.91 µM) | 3.86 (≈ 5.75 µM) |
| C[C@@H]1[C@H](O)[C@@H](C)/C=C/C=C/C=C/C=C/C=C/C=C/C=C/[C@H](O[C@@H]2O[C@H](C)[C@@H](O)[C@H](N)[C@@H]2O)C[C@@H]2O[C@](O)(C[C@@H](O)C[C@@H](O)[C@H](O)CC[C@@H](O)C[C@@H](O)CC(=O)O[C@H]1C)C[C@H](O)[C@H]2C(=O)O [AMPHOTERICIN B] | – | – | – | – | – | – | 0.1 (≈ 0.108 µM) |
| CC[C@@]1(O)C(=O)OCc2c1cc1n(c2=O)Cc2cc3ccccc3nc2-1 [CAMPTOTHECIN] | – | – | – | – | – | 0.4 (≈ 1.15 µM) | – |
| C=C[C@H]1CN2CC[C@H]1C[C@H]2[C@H](O)c1ccnc2ccccc12 [CINCHONIDINE] | 0.28 (≈ 0.951 µM) | 18.3 (≈ 62.1 µM) | 0.96 | – | > 71 | > 20 | 5.74 (≈ 19.5 µM) |
| C=C[C@H]1CN2CC[C@H]1C[C@@H]2[C@@H](O)c1ccnc2ccccc12 [CINCHONINE] | 0.09 (≈ 0.306 µM) | > 20 | – | – | > 222 | > 20 | > 20 |
| C=C[C@H]1CN2CC[C@H]1C[C@@H]2[C@@H](O)c1ccnc2ccc(OC)cc12 [QUINIDINE] | 0.06 (≈ 0.185 µM) | 8.42 (≈ 26 µM) | – | 1.3 | 179 | 11.3 (≈ 34.8 µM) | > 20 |
| C=C[C@H]1CN2CC[C@H]1C[C@H]2[C@H](O)c1ccnc2ccc(OC)cc12 [QUININE] | 0.2 (≈ 0.616 µM) | 6.87 (≈ 21.2 µM) | – | 1 | 32 | 6.56 (≈ 20.2 µM) | > 20 |
| Cc1ccc(C(=O)Nc2ccc(S(=O)(=O)O)c3cc(S(=O)(=O)O)cc(S(=O)(=O)O)c23)cc1NC(=O)c1cccc(NC(=O)Nc2cccc(C(=O)Nc3cc(C(=O)Nc4ccc(S(=O)(=O)O)c5cc(S(=O)(=O)O)cc(S(=O)(=O)O)c45)ccc3C)c2)c1 [SURAMIN] | – | 0.11 (≈ 0.0848 µM) | – | – | – | – | – |
